Data taken from PMC7795089, “Antimalarials and Phytotoxins from Botryosphaeria dothidea Identified from a Seed of Diseased Torreya taxifolia” (Molecules, 2020).
Like-named read-outs stand apart in the source and are kept apart here.

Tests used:
[1] = In vitro cytotoxicity assay (neutral red), BT-549; format: cell-based; settings: human, BT-549 cells (breast ductal carcinoma), 48 h incubation, read-out: Cytotoxic activity IC50, BT-549
Experimental: (§1) Cells were seeded to the wells of a 96-well plate at a density of 25,000 cells/well and incubated for 24 h. Samples at different concentrations were added and plates were again incubated for 48 h. The number of viable cells was determined by using neutral red dye and IC50 values were obtained from dose response curves. Doxorubicin was used as a positive control.

[2] = In vitro cytotoxicity assay (neutral red), SK-MEL; format: cell-based; settings: human, SK-MEL cells (malignant melanoma), 48 h incubation, read-out: Cytotoxic activity IC50, SK-MEL
Experimental: as §1

[3] = In vitro cytotoxicity assay (neutral red), LLC-PK11; format: cell-based; settings: pig, 48 h incubation, read-out: Cytotoxic activity IC50, LLC-PK11
Experimental: as §1

[4] = In vitro cytotoxicity assay (neutral red), SK-OV-3; format: cell-based; settings: human, SK-OV-3 cells (ovarian carcinoma), 48 h incubation, read-out: Cytotoxic activity IC50, SK-OV-3
Experimental: as §1

[5] = In vitro cytotoxicity assay (neutral red), KB; format: cell-based; settings: human, KB cells (oral epidermal carcinoma), 48 h incubation, read-out: Cytotoxic activity IC50, KB
Experimental: as §1

[6] = In vitro cytotoxicity assay (neutral red), Vero cells; format: cell-based; settings: African green monkey, Vero cells (kidney fibroblasts)
Experimental: as §1

Plasmodium = tested on: Plasmodium; parameters: method as in PMID 32043422; settings: cited from earlier work
[7] = tested on: Plasmodium falciparum D6 (chloroquine-sensitive) strain; test: In vitro antiplasmodial assay, chloroquine-sensitive (D6) clone; format: cell-based; settings: for IC50: Plasmodium falciparum
[8] = tested on: Plasmodium falciparum W2 (chloroquine-resistant) strain; test: microbe, parasite or virus in culture; format: cell-based; settings: for IC50: Plasmodium falciparum
Bacillus subtilis = tested on: Bacillus subtilis; parameters: method as in PMID 30935798; settings: enantiomers and racemate of compound 2; cited from earlier work
[9] = tested on: human leukemia HL-60 cells; parameters: method as in PMID 30935798; settings: enantiomers and racemate of compound 2; comparable to positive control irinotecan; cited from earlier work
[10] = D6, read-out: Chloroquine-Sensitive (D6)-Clone IC50
[11] = W2, read-out: Chloroquine-Resistant (W2)-Clone IC50

## COc1cccc2c1C(=O)c1c(O)c3c(c(O)c1C2=O)C[C@@](O)(C(=O)CO)C[C@@H]3O[C@H]1C[C@H](N)[C@H](O)[C@H](C)O1 [Doxorubicin]
[1]
  IC50 at 48 h: 1830 nM
[2]
  IC50 at 48 h: 1290 nM
[3]
  IC50 at 48 h: 1280 nM
[4]
  IC50 at 48 h: 1470 nM
[5]
  IC50 at 48 h: 2120 nM

## C[C@@H]1CC[C@H]2[C@@H](C)C(=O)O[C@@H]3O[C@@]4(C)CC[C@@H]1[C@]32OO4 [Artemisinin]
[6]
  IC50 at 48 h: > 4.76 µg/mL

## C\C=C(/C=C(C)/C=C/C=C/C=C(\C)C(=O)[C@H]1C(=O)N[C@]2(O)CCO[C@H]12)C(=O)OC [lucilactaene]
Plasmodium
  antiplasmodial activity: potent antiplasmodial activity

## CCN(CC)CCCC(C)Nc1ccnc2cc(Cl)ccc12 (stereo not shown) [Chloroquine]
[7]; [10]
  IC50: 0.016 µg/mL
[7]; D6, read-out: Chloroquine-Sensitive (D6)-Clone IC50 (µM, in parentheses)
  IC50: 0.03 µM
[6]
  IC50 at 48 h: > 4.76 µg/mL
[8]; [11]
  IC50: 0.16 µg/mL
[8]; W2, read-out: Chloroquine-Resistant (W2)-Clone IC50 (µM, in parentheses)
  IC50: 0.31 µM

## C\C=C(/C=C(C)/C=C/CC/C=C(\C)C(=O)C1=CC(C)(OC)NC1=O)C(=O)OC (stereo not shown) [Compound 3, dothilactaene A]
[7]; P. falciparum D6, concentration causing 50% growth inhibition, highest concentration tested […]
  Chloroquine-Sensitive (D6)-Clone IC50: inactive
[7]; [10]
  IC50: > 4.76 µg/mL
[6]
  IC50 at 48 h: > 4.76 µg/mL
[8]; P. falciparum W2, concentration causing 50% growth inhibition, highest concentration tested […]
  Chloroquine-Resistant (W2)-Clone IC50: inactive
[8]; [11]
  IC50: > 4.76 µg/mL

## CC1=CC(=O)C2(OC2C(=O)CC(C)C)C(=O)N1 (stereo not shown) [Compound 2, flavipucine]
Bacillus subtilis
  antibacterial activity against Bacillus subtilis: moderate antibacterial activity
[9]
  cytotoxic activity against human leukemia HL-60 cells: strong cytotoxic activity
